Usually mass density stands for the mass of a sample divided by its volume.

For the data set the following is noted: 303.15 K; 101.1 kPa; Crystal; flotation method.

± gives the expanded uncertainty stated by the source.

For the molecule `Cc1cc(C(=O)O)ccc1[N+](=O)[O-]` [3-methyl-4-nitrobenzoic acid], the mass density is on record as 1528.6 ± 2.7 kg/m3.

These data come from the NIST ThermoML archive (doi:10.1016/j.jct.2016.07.023).
